Experimental data from patent US20200392223A1, “IL-17A ACTIVITY INHIBITOR AND USE THEREOF” (TOKAI UNIVERSITY EDUCATIONAL SYSTEM, priority 2018, published 2020).

Key:
[1] = tested on: rat nucleus pulposus (NP) cell; assay: mRNA expression (real time RT-PCR) in rat NP cells treated with IL-17A under 1% oxygen; format: cell-based; settings: 24 hours
Experimental: Nucleus pulposus cells were separated from a Sprague Dawley rat aged 11 weeks according to a method in Risbud et al (Journal of cellular biochemistry 98, 152-159, 2006; doi:10.1002/jcb.20765). In short, lumbar and coccygeal intervertebral discs of a deeply anesthetized rat were dissected under an aseptic condition, gel-like nucleus pulposus was separated from intervertebral disc annulus fibrosus (AF), the nucleus pulposus was minced and pipetted, and then the nucleus pulposus was cultured in a Dulbecco's Modified Eagle Medium (DMEM) in which 20% FBS and antibiotics were added at 20% O2, 5% CO2, and 37° C. for about 1 to 2 weeks, and then was cultured in DMEM in which 10% FBS and antibiotics were added for about 1 to 2 weeks.
The cultured rat nucleus pulposus cells were treated with 20 or 50 ng/mL of recombinant mouse IL-17A (Pepro Tech Inc., USA, #210-17) for 24 hours, expression levels of mRNAs of IL-6, COX-2, mPGES1, MMP-3, and MMP-13 were determined by real time RT-PCR according to the following procedure. Total RNA was extracted from the nucleus pulposus cells using an RNAeasy mini-column (Qiagen, Germany). Before elution from the column, RNA was treated with RNase-Free DNase I (Qiagen, Germany). The purified DNA-free RNA was transformed into cDNA using a High Capacity cDNA Reverse Transcription Kit (Applied Biosystems, USA). Template cDNA and a primer specific to each gene were added to Power SYBR Green master mix (Applied Biosystems) and an expression level of mRNA of each gene was determined using Step One Plus Real-time PCR System (Applied Biosystems). The expression level was normalized to β actin. It was verified by melting curve analysis that RT-PCR was specific and a primer dimer was not formed. […]
In (B) and (C), among the compounds of the present invention, only the compound (3) which is considered from the results of (A) described below to have the highest effect on IL-6 and COX-2 was used.
A p38 phosphorylation inhibitor “SB203580” with a concentration of 10 μM, a JNK phosphorylation inhibitor “SP600125” with a concentration of 10 μM, or an ERK phosphorylation inhibitor “PD98059” with a concentration of 10 μM was administered to rat NP cells together with recombinant mouse IL-17A with a concentration of 50 ng/ml, or alternatively, these inhibitors were not administered, and the cells were cultured under a 1% oxygen condition for 24 hours, and an expression level of mRNA of each of COX-2 and IL-6 was determined by real time RT-PCR according to the same procedure as that of [Reference Example 2]. […]

p38 = assay: Phosphorylation of MAPK factors (western blotting) in rat NP cells treated with IL-17A; format: cell-based; settings: 50 μg/ml + IL-17A 50 ng/ml, 1% oxygen
Experimental: In rat nucleus pulposus cells subjected to treatment for 24 hours in 50 ng/mL of IL-17A in which the most remarkable increases of IL-6 and COX-2 were observed, an expression level of a protein of each of IL-6 and COX-2, and β actin used as a control was determined by western blotting according to the following procedure. The nucleus pulposus cells were placed on ice and then washed with ice-cold PBS. In order to prepare total cell proteins, the cells were lysed with a lysis buffer containing 10 mM Tris-HCl (pH 7.6), 50 mM NaCl, 5 mM EDTA, 1% Nonidet P-40, a complete protease inhibitor cocktail (Roche AG, USA), 1 mM NaF, and 1 mM Na3VO4. The proteins were fractionated by SDS-PAGE and transferred onto Immobilon-P polyvinylidene difluoride membrane (Millipore Corporation, USA). […] Western blotting data were quantified by densitometric scanning of a film using Macintosh computer software “CS Analyzer” (ATTO Corporation, Japan). […]
It is reported that IL-17A is likely to be involved in the expression of COX-2 through a MAPK pathway. Involvement of IL-17A in MAPK factors (p38, JNK, and ERK) with respect to the expression of each of COX-2 and IL-6, and influence of the compound (1) of the present invention on these MAPK factors were evaluated by the following method. […]

[2] = tested on: rat intervertebral disc degeneration model; assay: Rat intervertebral disc degeneration model; format: in vivo; settings: 1 mg in 10 μL DMSO injected into degenerated disc on day 14, evaluated day 28
Experimental: A 23G needle was inserted into a caudal intervertebral disc of a 11-weeks-old male SD rat (weight: 300 to 350 g) by about 5 mm, rotated at 360°, and left for 30 seconds to cause intervertebral disc degeneration (day 0). 14 days (day 14) after being subjected to the intervertebral disc degeneration, 10 μL of a DMSO solution containing 1 mg of the compound (3) (database registration number: STK630921) was injected to the degenerated intervertebral disc (STK group=compound (3) treated group). […]
28 days (day 28) after being subjected to the intervertebral disc degeneration, the caudal vertebrae of the rats in the STK group, the Sham group, the degeneration group, and the normal group were collected, fixed in 4% PFA, and decalcified, thereby preparing sample sections. […] In each sample subjected to the immunostaining, the number of IL-6 positive cells in spots of the same area arbitrarily set at 3 or 4 locations in the intervertebral disc tissue was counted with the same magnification field of view, and an expression rate of the IL-6 positive cells with respect to a total number of cells in the same spot was calculated.

[3] = tested on: mouse psoriasis skin model; assay: Mouse psoriasis skin model (imiquimod cream); format: in vivo
Experimental: About 1×1.5 cm of back of 10-week-old male BJ6J mouse was shaved, and imiquimod (IMQ, a drug causing psoriasis-like dermatitis in a mouse) cream was applied every day from day 1 to day 4. From the 5th day (day 5) after the first IMQ cream application, 6 to 8 hours after the application of the IMQ cream, a DMSO solution containing 1 mg of the compound (3) (database registration name: STK630921) was applied (STK group=compound (3) treated group). The same IMQ cream and the solution of the compound (3) were applied every day from the 6th day (day 6) to the 9th day (day 9). […]
On the 10th day (day 10), skin of the mice in each of the STK group, the Sham group, the IMQ group, and the normal group was collected, and one sample obtained by hematoxylin eosin (HE) staining and one sample obtained by immunofluorescence staining using an anti-CXCL1 antibody were prepared per mouse. In the HE stained samples, for each sample, a thickness of an epidermis layer was measured at two or more locations with the same magnification field of view, and an average value was statistically analyzed (significant difference: p<0.05, n=3).

[4] = compound 50 μg/ml + IL-17A 50 ng/ml, vs IL-17A only
[5] = inhibitor 10 μM + IL-17A 50 ng/ml

| SMILES | expression level of mRNA of COX-2 [1, 4] | expression level of mRNA of IL-6 [1, 4] | expression level of mRNA of MMP-3 [1, 4] | expression level of mRNA of MMP-13 [1, 4] | expression level of mRNA of mPGES1 [1, 4] | further results |
| --- | --- | --- | --- | --- | --- | --- |
| C[C@H](NC(=O)Cc1nnc(O)c2ccccc12)C(=O)NCC1CCC(C(=O)O)CC1 (some centres unmarked) [(1)] | excellent in the action | – | – | – | – | phosphorylation of p38 (p38; 15 minutes): reduced; phosphorylation of p38 (p38; 30 minutes, vs IL-17A single administration group): significant reduction |
| COc1ccc(C[C@@]2(C)NC(=O)N(CC(=O)Nc3ccc(N4CCCC4=O)cc3)C2=O)cc1OC [(5)] | significantly reduced | significantly reduced | significantly reduced | significantly reduced | significantly reduced | – |
| CC(NC(=O)Cc1nnc(O)c2ccccc12)C(=O)NCC1CCC(C(=O)O)CC1 (centres unmarked) [(3)] | remarkably reduced | remarkably reduced | significantly reduced | significantly reduced | significantly reduced | expression rate of the IL-6 positive cells [2]: significantly reduced; thickness of the epidermis layer ([3]; DMSO solution containing 1 mg applied day 5 to day 9, skin collected day 10, HE staining): significantly reduced; expression of CXCL1 ([3]; DMSO solution containing 1 mg applied day 5 to day 9, skin collected day 10, immunofluorescence area): significantly reduced |
| COc1cccc(-c2cc(=O)c3ccccc3o2)c1N [PD, PD98059, reference compound] | – | – | – | – | – | expression level of mRNA of COX-2 [1, 5]: significantly suppressed; expression level of mRNA of IL-6 [1, 5]: significantly suppressed |
| C=C(C)COc1ccc2c(C)c(CC(=O)N(C)C[C@H](O)[C@H](O)[C@H](O)[C@H](O)CO)c(=O)oc2c1C [(11)] | significantly reduced | significantly reduced | significantly reduced | significantly reduced | significantly reduced | – |
| CC(C)NC(=O)CCCCn1c(=O)c2ccccc2n(CC(=O)Nc2ccc3c(c2)OCO3)c1=O [(9)] | – | significantly reduced | – | – | – | – |
| C[S+]([O-])c1ccc(-c2nc(-c3ccncc3)c(-c3ccc(F)cc3)[nH]2)cc1 (centres unmarked) [SB, SB203580, reference compound] | – | – | – | – | – | expression level of mRNA of COX-2 [1, 5]: significantly suppressed; expression level of mRNA of IL-6 [1, 5]: significantly suppressed |
